Series [1] is described as follows: Gel formation test with water. Format: physicochemical. The settings on record: amphiphilic compound mixed with water alone, no phospholipid. As for the experimental part: The precursor formulations Nos. 1 to 23 were subjected to gel formation test. A portion (about 100 to 300 mg) of each precursor formulation was added to an excess amount (about 0.5 to 2 mL) of water for injection in a vial, and the whole was mixed at room temperature (25° C.) with a spatula and/or a vortex mixer.
The precursor formulations Nos. 26 to 31 were subjected to gel formation test in a similar manner to that in Example 2.
The precursor formulations Nos. 36 to 40 were subjected to gel formation test. A portion (about 100 to 300 mg) of each precursor formulation was added to an excess amount (about 0.5 to 2 mL) of water for injection in a vial, and the whole was mixed at room temperature (25° C.) with a spatula and/or a vortex mixer.

Series [2] can be described thus: SAXS liquid crystal structure analysis of gel compositions. It is filed as physicochemical. The settings on record: amphiphilic compound mixed with water alone. The text has this:
The gel compositions formed from the precursor formulations Nos. 1 to 23 were each directly embedded in a pinhole slit and subjected to small-angle X-ray scattering diffractometry with a small-angle x-ray scattering (SAXS) apparatus (manufactured by Rigaku Corp., Nano-Viewer) to analyze the non-lamellar liquid crystal structure.
The obtained liquid crystal phases and scattering vector values q1 [nm^−1] of peaks located at the smallest angle are shown in Tables 1 and 2. […] There were some gel compositions having two types of different liquid crystal phases.

Take `CCCCC/C=C\C/C=C\CCCCCCCC(=O)OCCC(C)O` (stereo not drawn) [1,3-Butylene glycol monolinoleate]: the gel composition formation entry in series [1] is listed as “failed to form a gel composition”.

Take `CCCCC/C=C\C/C=C\CCCCCCCC(=O)OCCC(C)(C)O` [3-methyl-1,3-butanediol monolinoleate]: in series [1], the gel composition formation entry was “failed to form a gel composition”.

As to `CCCCCCCC/C=C\CCCCCCCC(=O)OCCOCCO` [diethylene glycol monooleate, Diethylene glycol monooleate], in series [2], the liquid crystal phase result is “HII” and the q1 was 1.35 nm⁻¹. In addition, in series [1], the gel composition formation result is reported as “formed a gel composition”.

As for `CCCCC/C=C\C/C=C\CCCCCCCC(=O)OC1COC2C(O)COC12` (stereo not drawn) [isosorbide monolinoleate], the gel composition formation entry in series [1] is “failed to form a gel composition”.

These data come from patent US20240327709A1, “NON-LAMELLAR LIQUID CRYSTAL-FORMING COMPOSITION AND USE THEREOF” (FARNEX INCORPORATED, priority 2021, published 2024).
